Legend:
Type in all cases: physicochemical
[1] = leaching of Japan cedar blocks treated with LSA and chemical agents (Example 4); conditions: 5% LSA; for Elution Rate (%) Chemical Agent: species measured as bracketed (Copper, Zinc, Nickel, Boron, H = hinokitiol), else the agent named
Method: For chemical agents having low solubilities, they were added to aqueous lignosulfonic acid solution after it was warmed to 60 to 90° C., and it was cooled at 25° C. after the chemical agents were suspended, dispersed, dissolved by Vortex-Mixer, […]
The amount of lignosulfonic acid which leached off was determined by measurement of the absorbance at 280 nm, and the amount of the chemical agent which leached off was determined by complex formation and spectrophotometry using PAN (1-(2-pyridylazo)-2-naphthol, Aldrich Chemical Company) or quinalizarin (Wako Pure Chemicals), separation, identification and determination, using HPLC or gas chromatography, or atomic absorption analysis were performed, followed by calculation of the amount of the chemical agents which was eluted. When the chemical agents had absorption at 280 nm, the concentration of lignosulfonic acid was calculated by measuring the absorbance at 280 nm of the chemical agents of which the concentration was measured by the above-described method and subtracting an influence by the chemical agent from the absorbance at 280 nm of the liquid which was eluted. The amounts of the chemical agents and lignosulfonic acid which were eluted were calculated and compared taking the amounts of them injected upon the impregnation treatment as 100%.

[2] = leaching of cypress blocks, bilirubin oxidase (Example 6); conditions: for Elution Rate (%) LSA: pH 8.1-8.8; for Elution Rate (%) Chemical Agent: pH 8.1-8.8, species as bracketed (Copper, Zinc, Nickel, Boron, H = hinokitiol), else the agent named
From the text: Taking the amounts of the lignosulfonic acid (LSA) and chemical agent as injected upon the impregnation treatment as 100%, respectively, the amounts of the substances which were eluted were compared.

[3] = leaching of cypress blocks, peroxidase + alcohol oxidase (Example 7); conditions: 5 U/ml peroxidase + 5 U/ml alcohol oxidase + 1% methanol
From the text: The peroxidase used was obtained from horse radish (Type II, Sigma) and the alcohol oxidase used was obtained from Candida boidini (Boehringer Mannheim Biochemica).

[4] = leaching of Japan cedar blocks, powdery treatment agent stored 2 weeks (Example 21); conditions: 5 g in 100 ml; for Elution Rate (%) LSA: powdery agent (10 mg enzyme + 10 g LSA + agent) stored 2 weeks, Japan cedar; for Elution Rate (%) Chemical Agent: powdery agent stored 2 weeks, species as bracketed (Copper, Zinc, Nickel, Boron, H = hinokitiol), else the agent named
Method: 10 mg of the freeze-dried product described in Example 1, 10 g of commercially available lignosulfonic acid (LSA) powder, and various chemical agents were mixed well in a mortar to obtain a treatment agent for treating a porous article. If desired, a small amount of sodium carbonate powder was added to the resulting powder and mixed well, so that when a 5% aqueous solution was prepared from the above-described powder the solution could have a pH of 8.0 to 9.0. Then, after the powdery treatment agent was left to stand at room temperature for 2 weeks, 5 g of the powder was dissolved in 100 ml of deionized water to prepare a solution for treating a porous article. Using this solution, Japan cedar wood blocks were subjected to reduced pressure impregnation, drying/macromolecularization reaction, and leaching in the same manner as in Examples 3 and 4. Taking the amounts of lignosulfonic acid and chemical agents injected upon the impregnation treatment as 100%, respectively, the amounts of them which was eluted were compared. The results are shown in Table 12, from which it can be seen that the powdery treatment agent enables effective treatment of porous articles.

[5] = leaching of Japan cedar blocks, liquid treatment agent stored 2 weeks (Example 21); conditions: diluted 10-fold; for Elution Rate (%) LSA: liquid agent (6 g powder in 12 ml) stored airtight 2 weeks, Japan cedar; for Elution Rate (%) Chemical Agent: liquid agent stored airtight 2 weeks, species as bracketed (Copper, Zinc, Nickel, Boron, H = hinokitiol), else the agent named
Method: Further, 6 g of the powdery treatment agent obtained in the same manner as described above was dissolved in 12 ml of deionized water to obtain a liquid treatment agent for a porous article. The liquid treatment agent was transferred into a 20 ml screw capped test tube. After the test tube stand airtightly at room temperature for 2 weeks, the liquid treatment agent was diluted 10-fold with deionized water to prepare a solution for treating a porous article. Japan cedar wood blocks were subjected to reduced pressure impregnation treatment with the solution thus obtained, drying/macromolecularization reaction, and elution treatment in the same manner as in Examples 3 and 4. The amounts of the lignosulfonic acid which were eluted were calculated and compared taking the amounts of it injected upon the impregnation treatment as 100%.

[6] = leaching of Japan cedar blocks, treating mixture with tung oil (Example 8); conditions: Example 1 enzyme, 5% LSA, 2,000 ppm tung oil; for Elution Rate (%) LSA: pH 8.1-8.5; for Elution Rate (%) Chemical Agent: pH 8.1-8.5, species as bracketed (Copper, Zinc, Nickel, H = hinokitiol), else the agent named
Method: The amounts of the chemical agents and lignosulfonic acid which were eluted were calculated and compared taking the amounts of them injected upon the impregnation treatment as 100%.

[7] = in the absence of enzyme (comparison), pH 8.1-8.8
[8] = in the presence of enzyme, Japan cedar, pH of treating agent 8.1-8.8
[9] = in the presence of enzyme, pH 8.1-8.8

Row | Compound | Elution Rate (%) LSA [1, 7] [%] | Elution Rate (%) Chemical Agent [1, 7] [%] | Elution Rate (%) LSA [1, 8] [%] | Elution Rate (%) Chemical Agent [1, 9] [%] | Elution Rate (%) LSA [2] [%] | Elution Rate (%) Chemical Agent [2] [%] | Elution Rate (%) LSA ([3]; pH 8.1-8.8) [%] | Elution Rate (%) Chemical Agent ([3]; pH 8.1-8.8, species as bracketed (Copper, Zinc, Boron, H = hinokitiol), else the agent named) [%] | Elution Rate (%) LSA [4] [%] | Elution Rate (%) Chemical Agent [4] [%] | Elution Rate (%) LSA [5] [%] | Elution Rate (%) Chemical Agent [5] [%] | Elution Rate (%) LSA [6] [%] | Elution Rate (%) Chemical Agent [6] [%]
1 | Nc1ccccc1N [o-Phenylenediamine (0.04 g), o-Phenylenediamine] |  |  |  |  |  |  |  |  | 1.5 | 0.4 | 2.1 | 0.8 |  | 
2 | CC12CCC(CC1)C(C)(C)O2 [500 ppm cineole, cineole] | 25.7 | 6.2 | 0.5 | 0.2 | 0.8 | 0.6 |  |  |  |  |  |  | 0.5 | 0.2
3 | O=CC=Cc1ccccc1 [100 ppm Cinnamaldehyde, Cinnamaldehyde] | 22.1 | 8.5 | 1.5 | 0.7 | 5.4 | 2.1 |  |  |  |  |  |  | 1.9 | 0.2
4 | OB(O)O [Boric acid (2 g), Boric acid] |  |  |  |  |  |  |  |  | 0.6 | 18.1 | 0.6 |  |  | 
5 | C=CCN=C=S [100 ppm Allyl isothiocyanate, Allyl isothiocyanate] | 26.3 | 7.5 | 3.5 | 2.2 | 8.5 | 7.8 |  |  |  |  |  |  | 2.1 | 1.3
6 | Nc1ccccc1N [200 ppm o-Phenylenediamine, o-Phenylenediamine] | 16.5 | 5.3 | 1.0 | 0.2 | 2.5 | 0.6 |  |  |  |  |  |  |  | 
7 | Cc1cc2cccc(C)c2cc1C [10 ppm 2,3,5-Trimethylnaphthalene, 2,3,5-Trimethylnaphthalene] | 23.3 | 5.6 | 0.8 | 0.1 | 2.4 | 0.3 |  |  |  |  |  |  |  | 
8 | (+)-Catechin.H2O [(+)-Catechin.H2O (0.2 g)] |  |  |  |  |  |  |  |  | 2.9 | 3.2 | 2.0 | 3.4 |  | 
9 | CC(C)=CCCC(C)CCO (stereo not drawn) [100 ppm β-citronellol, β-citronellol] | 25.4 | 6.8 | 0.7 | 0.4 | 2.9 | 0.8 |  |  |  |  |  |  | 1.7 | 0.2

Continued, values first:

Row | Elution Rate (%) LSA [1, 7] [%] | Elution Rate (%) Chemical Agent [1, 7] [%] | Elution Rate (%) LSA [1, 8] [%] | Elution Rate (%) Chemical Agent [1, 9] [%] | Elution Rate (%) LSA [2] [%] | Elution Rate (%) Chemical Agent [2] [%] | Elution Rate (%) LSA ([3]; pH 8.1-8.8) [%] | Elution Rate (%) Chemical Agent ([3]; pH 8.1-8.8, species as bracketed (Copper, Zinc, Boron, H = hinokitiol), else the agent named) [%] | Elution Rate (%) LSA [4] [%] | Elution Rate (%) Chemical Agent [4] [%] | Elution Rate (%) LSA [5] [%] | Elution Rate (%) Chemical Agent [5] [%] | Elution Rate (%) LSA [6] [%] | Elution Rate (%) Chemical Agent [6] [%] | Compound
10 | 22.1 | 32.3 | 0.7 | 25.1 | 3.7 | 26.2 | 5.6 | 27.5 |  |  |  |  |  |  | OB(O)O [1% Boric acid, Boric acid]
11 | 27.4 | 7.5 | 0.5 | 0.2 | 2.8 | 1.3 |  |  |  |  |  |  | 0.6 | 0.4 | CC1CCC(C(C)C)C(O)C1 [500 ppm (1R,2S,5R)-(−)-menthol, (1R,2S,5R)-(−)-menthol]
12 |  |  |  |  |  |  |  |  | 3.6 | 4.2 | 3.7 | 4.6 |  |  | O=C(OC[C@H]1O[C@@H](OC(=O)c2cc(O)c(O)c(OC(=O)c3cc(O)c(O)c(O)c3)c2)[C@H](OC(=O)c2cc(O)c(O)c(OC(=O)c3cc(O)c(O)c(O)c3)c2)[C@@H](OC(=O)c2cc(O)c(O)c(OC(=O)c3cc(O)c(O)c(O)c3)c2)[C@@H]1OC(=O)c1cc(O)c(O)c(OC(=O)c2cc(O)c(O)c(O)c2)c1)c1cc(O)c(O)c(OC(=O)c2cc(O)c(O)c(O)c2)c1 [Tannic acid (0.1 g), Tannic acid]
13 | 23.4 | 7.1 | 2.5 | 1.8 | 7.9 | 6.0 |  |  |  |  |  |  |  |  | CC(C)=CCCC(C)=CC=O [100 ppm citral, citral]
14 |  |  |  |  |  |  |  |  | 0.6 | 3.0 | 0.4 | 2.5 |  |  | CC(C)c1cccc(=O)c(O)c1 [Hinokitiol (0.2 g), Hinokitiol]
15 | 24.5 | 9.1 | 0.7 | 0.6 | 1.1 | 1.4 |  |  |  |  |  |  | 0.6 | 0.3 | CC1=CCC(C(C)(C)O)CC1 (stereo not drawn) [500 ppm α-terpineol, α-terpineol]
16 | 22.8 | 7.3 | 0.6 | 0.3 | 1.0 | 1.2 |  |  |  |  |  |  | 0.7 | 0.2 | CC1=CC[C@@H]2C[C@H]1C2(C)C [500 ppm (1R)-(+)-α-pinene, (1R)-(+)-α-pinene]

Source: patent publication US20030017565A1, “COMPOSITION AND METHOD FOR TREATING A POROUS ARTICLE AND USE THEREOF” (priority 1996, published 2003)
